Experimental data taken from PubChem BioAssay (NCI).
Where “and” joins values, the source holds several entries; their conditions need not be identical. Equal values may be shown once.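 Five concentrations, 48 hours, 96-well plates. At the GI50, growth is halved. Definition used: TGI = concentration required for complete inhibition of growth.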

System: MDA-MB-468 breast
Assay: NCI-60 cell line screen, 48 h

COc1ccc2c(c1)sc1nc(-c3ccccc3)c(-c3cccc4ccccc34)n12
GI50: 1.47 µM
TGI: 5.05 µM

Cc1cc(-c2nc(C(=O)Nc3cc4oc(N5CCOCC5)nc4nc3N3CC[C@@H](O)C3)co2)ccn1
GI50: 13.3 µM
TGI: 64.8 µM

C=CCO[C@H]1CO[C@H]2[C@@H]1OC[C@@H]2Oc1ccc(Nc2ccnc(Nc3ccc(O[C@H]4CO[C@H]5[C@@H]4OC[C@@H]5OCC=C)c(Cl)c3)n2)cc1Cl
GI50: 1.62 µM
TGI: 3.13 µM

COc1cccc(C2c3cc4c(cc3OC(C)(N3CCCC3)C2C)OCO4)c1O (stereo not drawn)
GI50: 4.66 µM
TGI: > 100 µM

Cc1ccc(NC(=O)Nc2ccc(-c3cccnc3)cc2N2CCC(CO)CC2)cc1
GI50: 2.49 µM
TGI: 7.12 µM

Cc1nc2sccn2c1-c1csc(Nc2ccccc2Cl)n1
GI50: 0.719 µM
TGI: 5.84 µM

COc1cc(/C=N\NC(=O)CN2CCN(c3cc4c(cc3F)c(=O)c(C(=O)N/N=C/c3cc(OC)c(OC)c(OC)c3)cn4C3CC3)CC2)cc(OC)c1OC
GI50: 0.221 µM
TGI: 0.535 µM

COc1cnc2c(c1)C(=O)c1c-2n(CCCN2CCOCC2)c(=O)c2cc(F)ccc12
GI50: 0.195 µM
TGI: 0.656 µM

Nc1c(C(=O)c2cccc(CCS(N)(=O)=O)c2)cnn1-c1ccc(F)cc1
GI50: > 17.7 µM
TGI: > 25 µM

O=C(Nc1ccc(F)cc1)Nc1ccc(Cl)c([N+](=O)[O-])c1
GI50: 2.15 µM
TGI: 7.54 µM

CCN1/C(=C\c2cc[n+](CC)c3ccccc23)C=Cc2ccccc21
GI50: 0.109 µM
TGI: 0.519 µM

Cc1ccc(CN2CCC(C(=O)Nc3ccc(-c4cc5ccccc5[nH]4)cc3)CC2)o1
GI50: 83.4 µM
TGI: > 100 µM

OC1CSSC1Cn1cnc2c(Nc3ccc(OCc4cccc(F)c4)c(Cl)c3)ncnc21 (stereo not drawn)
GI50: 0.786 µM
TGI: 2.12 µM

O=C(Nc1ccc(-n2ccc3c(NC(=O)c4ccccc4)nccc32)cc1)c1ccc(Cl)c(C(F)(F)F)c1
GI50: 0.919 µM
TGI: 5.65 µM

COc1ccc([C@H]2[C@H](O)C(=O)N2c2cc(OC)c(OC)c(OC)c2)cc1F
GI50: < 0.01 µM
TGI: > 100 µM

C[C@@H](Oc1cc(-n2cnc3ccc(CN4CCN(C)CC4)cc32)sc1C(N)=O)c1ccccc1C(F)(F)F
GI50: < 0.01 µM and 0.004 µM
TGI: 1.4 µM and 2.87 µM

O=C1NC(=NCCc2cccc(F)c2)S/C1=C\c1ccc2ncccc2c1
GI50: 1.18 µM
TGI: > 20.4 µM

NS(=O)(=O)OC[C@@H]1C[C@@H](n2ccc3c(NC4CCc5ccccc54)ncnc32)C[C@@H]1O (stereo partly drawn)
GI50: 1.31 µM
TGI: 50.2 µM

Fc1[nH]nc2ccc([C@@H]3Nc4ccc5[nH]ncc5c4[C@H]4C5CCC(C5)[C@@H]34)cc12 (stereo partly drawn)
GI50: 0.361 µM
TGI: 12 µM

Cc1ccc2c(C)c3c(ccc4ccccc43)c[n+]2c1
GI50: 0.408 µM
TGI: 2.24 µM

COc1cc2c(c(OC)c1OC)-c1ccc(NNC(N)=S)c(=O)cc1[C@@H](NC(C)=O)CC2
GI50: 0.233 µM

COc1cccc(-c2cc(-c3cccc(NS(C)(=O)=O)c3)nc(N)c2C#N)c1O
GI50: 0.421 µM
TGI: 4.23 µM
